Experimental data: article PMC10120310 (Cell Insight, 2022)

Experiments:
[1] = target: influenza NA protein (Influenza A virus, UniProt P03470); type: cell-based, influenza virus (WSN)
[2] = system: H1N1 virus; assay: microbe, parasite or virus in culture; type: cell-based; settings: Influenza A virus, H1N1, MDCK
[3] = in vitro; settings: dog

influenza NA protein, sequence (P03470 whole entry, looked up): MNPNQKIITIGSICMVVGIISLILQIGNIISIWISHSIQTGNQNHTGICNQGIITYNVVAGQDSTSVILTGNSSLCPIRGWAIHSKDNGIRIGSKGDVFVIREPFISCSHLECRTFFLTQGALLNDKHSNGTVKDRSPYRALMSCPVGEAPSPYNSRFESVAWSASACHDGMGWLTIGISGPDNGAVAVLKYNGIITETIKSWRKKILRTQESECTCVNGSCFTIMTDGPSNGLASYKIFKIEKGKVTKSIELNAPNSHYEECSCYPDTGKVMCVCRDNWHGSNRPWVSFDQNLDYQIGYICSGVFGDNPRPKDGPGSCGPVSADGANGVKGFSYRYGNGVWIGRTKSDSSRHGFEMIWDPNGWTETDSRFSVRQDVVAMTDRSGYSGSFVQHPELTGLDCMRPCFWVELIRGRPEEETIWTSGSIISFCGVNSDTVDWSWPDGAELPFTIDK

## CCOC(=O)C1=C[C@@H](OC(CC)CC)[C@H](NC(C)=O)[C@@H](N)C1 [OSP, oseltamivir phosphate]
[1]
  NA protein degradation: no degradation activity
[2]
  EC50: 360 nM
[3]
  CC50: > 50000 nM
